The values below come from article PMC9505538, “P-Glycoprotein (MDR1/ABCB1) Restricts Brain Accumulation of the Novel EGFR Inhibitor EAI045 and Oral Elacridar Coadministration Enhances Its Brain Accumulation and Oral Exposure” (Pharmaceuticals, 2022).

The conditions of the data set: mouse, in vivo. Here is the method: A 4-h pilot experiment was performed in female wild-type (WT) and double-knockout Abcb1a/1b;Abcg2^-/- mice, with oral administration of 20 mg/kg EAI045. As shown in Supplemental Figure S2A,B, EAI045 was very rapidly absorbed in all strains, with an apparent tmax around 5 min.
We further measured the brain, liver, kidney, spleen, lung, and small intestine with content (SIWC) concentrations of EAI045 4 h after oral administration. Whereas at t = 4 h the plasma concentrations between the two strains were similar, the brain concentrations and brain-to-plasma ratios in Abcb1a/1b;Abcg2^-/- mice were dramatically higher than those in WT mice (25-fold and 12-fold, respectively, Supplemental Figure S3A,B). […] In contrast, the small intestine with content (SIWC) percentage of dose (SIWC%) and SIWC%-to-plasma ratio was reduced in Abcb1a/1b;Abcg2^-/- mice (Supplemental Figure S3K,L).
Mice (Mus musculus) were bred in the Netherlands Cancer Institute and housed and handled according to institutional guidelines complying with Dutch and EU legislation. Animals used were WT, Abcb1a/1b^-/- [39], Abcg2^-/- [40], Abcb1a/1b;Abcg2^-/- [41], Cyp3a^-/- [42], and Oatp1a/1b^-/- [43] mice of a >99% FVB/N strain background. Homozygous CYP3A4 humanized transgenic mice (Cyp3aXAV) were generated by cross-breeding of transgenic mice with stable human CYP3A4 expression in the liver or intestine, respectively, in a Cyp3a^-/- background. Proper functionality of the knockout and transgenic strains was monitored by regular testing with a variety of drug substrates. All the mice used were between 10 and 15 weeks of age. Animals were kept in a temperature-controlled environment with a 12 h light/12 h dark cycle and received a standard diet (Transbreed, SDS Diets, Technilab-BMI, The Netherlands) and acidified water ad libitum. Depending on the type of experiment, 5 or 6 mice were tested in each experimental group. All experimental animal protocols, including power calculations, were ethically assessed and designed under the nationally approved DEC/CCD project AVD301002016595 (approval date, 10 August 2016) and evaluated and approved by the institutional animal care and use committee (IACUC) of the Netherlands Cancer Institute.
EAI045 was dissolved in dimethyl sulfoxide (DMSO) at a concentration of 4 mg/mL, and then diluted with a mixture of polysorbate 80/ethanol (1:1, v/v), and further diluted with 5% (w/v) glucose in water to yield a concentration of 2 mg/mL. Final concentrations for DMSO, polysorbate 80, ethanol, and glucose in the dosing solution were 5%, 2.5%, 2.5%, and 4.5% (v/v/v/w), respectively. […]

Consider `O=C(Nc1nccs1)C(c1cc(F)ccc1O)N1Cc2ccccc2C1=O` (stereo not shown) [EAI045], for which the “percentage of dose left in intestinal lumen (SIWC%)” value turned out to be 1.7%. For the same compound, for the setting “po, 20 mg/kg”, the apparent tmax entry was “around 5 min” and the “plasma exposure over 4 h (AUC0–4h)” value is reported as “not meaningfully altered”. Besides, the brain-to-plasma ratio (po, 20 mg/kg, 4 h) worked out at 0.15.
